From US20130237582A1, “PHARMACEUTICAL COMBINATION OF PACLITAXEL AND A CDK INHIBITOR” (Piramal Enterprises Limited, priority 2010, published 2013) come the findings set out here.

The structures appear in SMILES notation.

The subject of experiment [1] is U251 pGL3. Nature of the experiment: Control luciferase reporter cell line (U251 pGL3). The class given is cell-based. Conditions: normoxia. From the text: 1) U251 HRE: The genetically engineered cells U251 HRE which stably express a recombinant vector in which the Luciferase reporter gene is under control of three copies of a canonical HRE. 2) U251 pGL3: A control cell line contains the firefly Luciferase reporter gene under control of the constitutively active SV40 promoter and enhancer that helps to exclude compounds that inhibit Luciferase expression in a nonspecific and/or HIF-1-independent fashion. These cells expressed high basal levels of Luciferase in normoxic conditions and slightly lower levels in hypoxic conditions.
U251 HRE cells were inoculated into 96 well white flat-bottomed plates at 10000-15000 cells/well in a volume of 180 μL and incubated for 24 h at 37° C., 5% CO2, and ambient O2. Compound A was tested at various concentrations viz. […] After 20 h incubation, the plates were removed and incubated at room temperature, 5% CO2, and ambient O2 for 1.5 h. 40 μL of Bright Glo Luciferase reagent (Promega™, USA) was added and after 3 min, luminescence was measured using a Polar Star Plate Reader (USA) in luminescence mode. Appropriate control cells (U251 pGL3) were treated identically, except that they were treated at 37° C., 5% CO2 and ambient O2. Compound toxicity was assayed using the MTS assay.
Background: In a reporter assay the amount or activity of a reporter protein is the signal.

In experiment [2] the test system is Bcl-2. As to the kind of experiment: Western blot analysis in MDA-MB-231 cells. In kind it is cell-based, human. The settings on record: 1.5 and 4.5 μM, 6, 24 and 30 h. As for the experimental part: The Western blot assay was carried out according to the procedure disclosed in Molecular Cancer Therapeutics, 2007, 6, 918-925 with some modifications.
MCF-7 and MDA-MB-231 cells were seeded in RPMI 1460 medium with 10% FCS in […] tissue culture flask and incubated for 24 h. The cells were treated with Compound A at 1.5 and 4.5 μM. At various time points, i.e. 6, 24 and 30 h the cells were harvested or trypsinized and lysed using lysis buffer (Sigma Aldrich, USA). Protein content was estimated. Lysate was applied to Sodium Dodecyl Sulphate-Polyacrylamide Gel Electrophoresis (SDS-PAGE) followed by western blotting (Molecular Cancer Therapeutics, 2007, 6, 918-925). Western blotting was done using specific antibodies to Bcl-2 and actin. The results are depicted in FIG. 4.
(In general: A western blot detects proteins with antibodies after separation by electrophoresis.)

For experiment [3], the system named is MCF-7, BT-549 and MDA-MB-231 cell lines. Nature of the experiment: Wound healing assay (cell migration). In kind it is cell-based, human. Conditions: 1 μM and 3 μM; 24 h. On the procedure:
The wound-healing assay is simple, inexpensive, and one of the earliest developed methods to study directional cell migration in vitro. This method mimics cell migration during wound healing in vivo.
Protocol: • 1. MCF-7 cells were seeded in RPMI 1460 medium with 10% FCS in […] tissue culture flask and incubated for 24 h. • 2. The cells were trypsinized and seeded at a density of (0.5−2.0)×10^6 per well in a sterile 6 well plate. • 3. The plate was incubated for about 16 h in humidified CO2 incubator (5% CO2) at 37° C. under ambient oxygen levels. […] The required number of cells for a confluent monolayer depends on both the particular cell type and size of dishes. • 4. The cell monolayer in a straight line was scraped evenly to create a “scratch” with a pipette tip. The first image of the scratches was captured before addition of the compound. • 5. Compound A was added at concentrations of 1 μM and 3 μM. • 6. The plates were then kept in the incubator for further incubation. The time frame for incubation was determined empirically for the particular cell type used. • 7. After the incubation, the dish was placed under a phase contrast microscope (Zeiss Axio Observer, Germany), reference point was matched, the photographed regions of the first image were aligned and the second image was captured. For each image distances between one side of the scratch and the other were measured. […]

Experiment [4] deals with MCF-7. As to the kind of experiment: Cytotoxicity assay using propidium iodide (PI). The class given is cell-based, human. On the procedure:
(§1) The propidium iodide fluorescence assay (PI) was carried out according to the procedure mentioned in Anticancer Drugs, 1995, 6, 522-32. The assay was developed to characterize the in vitro growth of human tumor cell lines as well as to test the cytotoxic activity of the compounds. Propidium iodide (PI) was used as a dye, which penetrates only damaged cellular membranes. Intercalation complexes are formed by PI with double-stranded DNA, which effect an amplification of the fluorescence. After freezing the cells at −20° C. for 24 h, PI had access to total DNA leading to total cell population counts. Background readings were obtained from cell-free wells containing media and propidium iodide. The human breast cancer cell lines (i.e. […] Control wells were treated with vehicle (DMSO). At the end of the incubation periods, the plates were assayed using PI cytotoxicity assay protocol. Percent cytoxicity was calculated at various drug concentrations and from the graph plotted the IC50 values were determined.

Experiment [5] relates to MDA-MB-231. Nature of the experiment: Cytotoxicity assay using propidium iodide (PI). In kind it is cell-based, human. As for the experimental part:
as §1

The target of experiment [6] is T1, CDK4-D1 (Cyclin D1 and CDK4) (Homo sapiens, UniProt P11802).
T1 construct: endogenous in cells; host or cells: MCF-7 (serum-starved, synchronized)
T1 sequence (P11802 2-303 limits assumed): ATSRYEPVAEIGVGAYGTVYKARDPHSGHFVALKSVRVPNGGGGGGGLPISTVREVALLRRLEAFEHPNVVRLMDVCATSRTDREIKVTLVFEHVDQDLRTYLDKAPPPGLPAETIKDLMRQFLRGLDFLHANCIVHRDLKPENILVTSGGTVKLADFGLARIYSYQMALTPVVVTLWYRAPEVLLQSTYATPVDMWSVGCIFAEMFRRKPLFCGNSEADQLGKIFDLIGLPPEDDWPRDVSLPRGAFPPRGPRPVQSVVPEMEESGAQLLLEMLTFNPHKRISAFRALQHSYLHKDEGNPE
T1 sequence (P24385 whole entry partner): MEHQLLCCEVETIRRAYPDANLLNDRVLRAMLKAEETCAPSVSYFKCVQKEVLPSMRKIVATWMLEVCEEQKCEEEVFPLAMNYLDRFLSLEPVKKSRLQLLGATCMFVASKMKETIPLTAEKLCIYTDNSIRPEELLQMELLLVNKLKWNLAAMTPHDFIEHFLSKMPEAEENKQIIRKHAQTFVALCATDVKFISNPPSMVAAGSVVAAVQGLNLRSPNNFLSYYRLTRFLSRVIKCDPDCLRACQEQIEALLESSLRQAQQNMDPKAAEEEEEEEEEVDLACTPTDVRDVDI
Nature of the experiment: CDK4 kinase activity after immunoprecipitation from MCF-7 cells. The class given is cell-based. The settings on record: synchronized MCF-7; 1.5 μM; 3, 6, 9 and 12 h. On the procedure: For immunoprecipitation assay, the MCF-7 cells were synchronized by serum starvation. These cells were treated with Compound A at 1.5 μM at various time points viz. 3 h, 6 h, 9 h and 12 h. Cells were harvested (trypsinised) and lysed using lysis buffer, and protein content was estimated. CDK4-D1 (Cyclin D1 and CDK4) was purified from the lysate by immunoprecipitation using specific antibody to CDK4. Immune complex was further purified using Protein A sepharose beads (Sigma Aldrich, USA). Immune complex was used to determine CDK4 activity using pRb as a substrate and ^32P labelled ATP (BRIT, India). Reaction mixed was applied to SDS-PAGE followed by transfer and autoradiography.

The test system of experiment [7] is cyclin D1. Nature of the experiment: Western blot of cell cycle proteins in MDA-MB-231. The class given is cell-based, human. The settings on record: 1.5 μM and 5 μM, 24 h. As for the experimental part: (§2) Correlation of PARP activity and cell cycle proteins cyclin D1, total Rb and pRb 780 were studied in two TNBC cell lines viz. MDA-MB-468 and MDA-MB-231. MDA-MB-231 and MDA-MB-468 cells were seeded in RPMI 1460 medium with 10% FCS in […] tissue culture flask and incubated for 24 h. These cells were treated at 1.5 μM and 5 μM Compound A for 24 h. The cells were harvested (trypsinised) and lysed using lysis buffer. Western blotting was carried out (Molecular Cancer […], 2007, 6, 918-925) using specific antibody to PAR, PARP, cyclin D1, CDK4 and pRb Ser 780.

Experiment [8] relates to pRb Ser 780. As to the kind of experiment: Western blot of cell cycle proteins in MDA-MB-231. The settings on record: 1.5 μM and 5 μM, 24 h. In kind it is cell-based, human. On the procedure: as §2
The test system of experiment [9] is CDK4. Nature of the experiment: Western blot of cell cycle proteins in MDA-MB-231. The class given is cell-based, human. Conditions: 1.5 μM and 5 μM, 24 h. As for the experimental part:
as §2

For orientation: IC50 means the concentration that gives 50% inhibition. Low readings indicate higher potency, high ones lower potency. As usually defined, the IC10 is the concentration at which the effect reaches the 10% level. Read a high IC10 as weaker potency. A word on the IC30: it is the concentration needed for an effect of 30%. Low readings indicate an effect from little substance, high ones a need for much substance.

`CN1CC[C@@H](c2c(O)cc(O)c3c(=O)cc(-c4ccccc4Cl)oc23)[C@@H]1CO.Cl` [Compound A, (+)-trans-2-(2-Chloro-phenyl)-5,7-dihydroxy-8-(2-hydroxymethyl-1-methyl-pyrrolidin-3-yl)-chromen-4-one hydrochloride]: the “luciferase expression in control cell line” value in experiment [1] is recorded as “did not inhibit the luciferase expression”. In experiment [2], the “expression of antiapoptotic protein Bcl-2” value is “significant down regulation was observed at 30 h”. Also, the “cell migration (wound healing)” value in [3] was “potent anti migratory effect”. Further, the 50% inhibitory concentration (IC50) in [4] (Homo sapiens, MCF7, PI assay) stood at 1000 nM; in [5] (Homo sapiens, 48 h treatment, PI assay), 1000 nM. The IC10 turned out to be 370 nM in experiment [4] (determined as in Example 3) and 450 nM in [5] (determined as in Example 3). Further, the IC30 in experiment [4] (determined as in Example 3) and in experiment [5] (determined as in Example 3) was 750 nM throughout. Moreover, in experiment [6], the CDK4 kinase activity result is on record as “Decrease in CDK4 kinase activity in cell-based assay was seen as early as 3 h onwards”. Also, the “cyclin D1 level” value in experiment [7] is given as “dose dependent decrease”. Also, the pRb level entry in experiment [8] is on record as “dose dependent decrease”. Moreover, in experiment [9], the CDK4 level entry is given as “dose dependent decrease”.
